What was measured:
[1] = system: rat peripheral nerve disorder induced by oxaliplatin; conditions: rats; oxaliplatin alone 4 mg/kg i.p. twice per week; second week; FIG. 5
[2] = system: rat peripheral nerve disorder induced by oxaliplatin; conditions: rats; oxaliplatin alone 4 mg/kg i.p.; second week; FIG. 6
[3] = system: rat peripheral nerve disorder induced by paclitaxel; format: in vivo; conditions: SD male rats; paclitaxel alone 6 mg/kg i.p. once a week for 4 weeks; FIG. 1
[4] = system: rat peripheral nerve disorder induced by paclitaxel; format: in vivo; conditions: rats; paclitaxel alone
Method: 7 and 8-week-old SD male rats were used as experimental animals and separated into three groups of a control group, group administered with paclitaxel, and group administered with paclitaxel and the test substance (group administered with paclitaxel+test substance). To the group administered with paclitaxel, paclitaxel (6 mg/kg) was intraperitoneally administered once a week for 4 weeks in a total of 4 times. To the group administered with paclitaxel+test substance, the test substance (200 NU/kg) was orally administered three times a week, that is, just before the paclitaxel administration and on days 1 and 2 after the paclitaxel administration, for 4 weeks in a total of 12 times. To the control group, a solvent (polyoxyethylene castor oil:ethanol=1:1) used in the paclitaxel administration was similarly administered.

DRG cells = format: cell-based, rat; conditions: 10 ng/mL paclitaxel only, 168 hours, FIG. 4
PC12 cells = format: cell-based, rat; conditions: forskolin-induced, 10 ng/mL paclitaxel only, 168 hours, FIG. 3
[5] = system: rat peripheral nerve disorder induced by paclitaxel; format: in vivo; conditions: SD male rats; paclitaxel alone 6 mg/kg i.p.; FIG. 2

Row | Compound | 50% reaction threshold value (von Frey test), compared with control group [1] | latent time to posterior foot avoidance (cold plate test, 4° C.) [2] | 50% reaction threshold value (von Frey test), compared with control group [3] | latent time (plantar test, heat stimuli) [4] | neurite outgrowth (neurite length) (DRG cells) | neurite outgrowth (neurite length) (PC12 cells) | latent time to avoidance reaction (acetone test, cold stimuli) [5]
1 | O=C1[O][Pt]2([NH][C@@H]3CCCC[C@H]3[NH]2)[O]C1=O [oxaliplatin] | remarkably lowered | remarkably shortened | – | – | – | – | –
2 | CC(=O)O[C@H]1C(=O)[C@@]2(C)[C@H]([C@H](OC(=O)c3ccccc3)[C@]3(O)C[C@H](OC(=O)[C@H](O)[C@@H](NC(=O)c4ccccc4)c4ccccc4)C(C)=C1C3(C)C)[C@]1(OC(C)=O)CO[C@@H]1C[C@@H]2O [paclitaxel] | – | – | remarkably lowered | not shortened | inhibited | inhibited | remarkably shortened

From patent US8613962B2, “Prophylactic or alleviating agent for peripheral nerve disorder induced by anti-cancer agent” (Kyushu University, National University Corporation, priority 2007, dated 2013)
